Series [1] relates to Saccharomyces cerevisiae. Kind of series: Bioavailability: filter disc inhibition zone on yeast agar plates (Examples 15 and 16). To be noted: 10 μl of 3 mM natamycin. It counts as cell-based. The protocol:
Saccharomyces cerevisiae (at least 10^5 cfu/ml) was distributed on Petri dishes with a diameter of 145 mm containing 30 ml Potato Dextrose Agar (PDA; Carl Roth; pH of about 6) using sterilized swabs. […] Following the application of a filter, Petri dishes were incubated for 16 h h in a refrigerator at 4° C. to allow diffusion of natamycin into the agar. After 16 h the filter discs were removed from the agar and the Petri dishes were incubated upside down in a stove at 30° C. […] After 24 h incubation in the stove the size of the inhibition zone was determined using a digital caliper gauge. The data are presented as square mm and are an average of six replicas. The effect of 3 mM natamycin on yeast growth in Petri dishes was determined as described herein above. Numbers represent surface of inhibition zones expressed in square mm. Same methods as described above in Example 15. The effect of 3 mM natamycin on yeast growth in Petri dishes was determined as described herein above, unless otherwise indicated.

Series [2] concerns Saccharomyces cerevisiae. Description: Bioavailability: filter disc inhibition zone, disc moved to a new plate after 24 h (Example 17). To be noted: 50 μl of 3 mM natamycin. The class given is cell-based. The protocol:
Saccharomyces cerevisiae (at least 10^5 cfu/ml) was distributed on Petri dishes with a diameter of 90 mm containing 10 ml PDA agar (Carl Roth, pH about 6) using sterilized swabs. Filter paper discs (Whatman) with a diameter of 6 mm were loaded with 50 μl of a solution containing a concentration of 3 mM natamycin. The size of the inhibition zone is a result of the natamycin released from the sample disc. After 24 h of incubation in the stove the size of the inhibition zone was measured using a digital caliper gauge. After measuring, the filter discs were removed and replaced on a new Petri dish similar to the previous one (90 mm containing 10 ml PDA agar and Saccharomyces cerevisiae (at least 10^5 cfu/ml) distributed by swabs). 24 hours after the replacement of the filters, the inhibition zone was measured again. The data are presented as square mm and are an average of four replicas.

Another series has as its system Botrytis cinerea. Description: Botrytis on wounded apples (Examples 18 to 20). It counts as in vivo. The protocol: Tested fruit: apples […] from organic origin/SKAL certified. SKAL is a semi-governmental Dutch organization that controls organic production in the Netherlands. Wounds of the apples were checked at day 3. Natamycin with different proteins and starch contents were tested at a natamycin concentration of 100 ppm. Used pathogen: Botrytis cinerea spore-suspension containing 2*10^6 spores/ml. Application: The fruit peel of the apple was damaged with a cork borer, ø 4 mm and depth 0.5 cm into the fruit, with 2 wounds per apple. 40 microliter of a freshly prepared spore suspension of B. cinerea was applied by pipette onto each wound. Subsequently, the spore-suspension was allowed to air-dry for 4 hours. Then, 50 microliter of a treatment as presented in the list above was applied by pipette to each wound. All fruits were kept at room temperature (20° C.). Wounds of the apples were checked after 3 days of incubation. The efficacy was calculated by measuring the surface area (square mm) of the rot on the apples compared to the untreated control (see Tables 31 and 32). Replicates: All treatments for the apple experiment were performed on six individual apples with two wounds each resulting in 12 wounds per treatment. This experiment was performed as described in Example 18. This experiment was performed as described in Example 19. Natamycin A and Natamycin E were used at different concentrations and data were recorded at different time points, as is indicated in Table 35.

Series [3] in a line: Average particle size of natamycin batches (Example 14). The class given is physicochemical. To be noted: batches of Table 20. The text has this: Methods for determining the average size of particles in a composition are known to the skilled person. For example, Hukkanen and Braatz, 2003. Sensors and Actuators B 96: 451-459, discuss varies methods that can be used for determining the average particle size in a composition, including forward light scattering and ultrasonic extinction. A preferred method is sieve analysis or laser diffraction analysis, for example using a Analysette 22-MicroTec plus laser-particle-sizer (Fritsch, Idar-Oberstein, Germany).
Several batches of crude natamcyin, prepared as described herein above, and commercial batches of purified natamycin (95%) were obtained and analysed.

The nature of series [4]: BET surface area analysis. It counts as physicochemical. Also noted: BET analysis: dose or concentration left out as unconfirmed. To be noted: for BET: batches of Table 20; for BET analysis: milled to a particle size of 2 μm. Here is the method: Surface area may be measured by any suitable methods or techniques known in the art. For example, with respect to the variations described above, the surface area is measured by BET (also known in the art as Brunauer, Emmett and Tellers analysis theory). Using BET analysis, the surface area of the natamycin composition may be determined by physical adsorption of nitrogen (N2) gas on the surface of the natamycin composition, which is a solid. The value of the BET analysis is expressed as m^2 per gram of solid material.
Brunauer, Emmett, and Tellers (BET) analysis theory was used to determine the surface area (expressed as m^2/g) for Natamycin Composition A and Control Natamycin. Each sample was milled to a particle size of […] prior to BET analysis.

The nature of series [5]: Saturation studies: dissolution in water with 5% polysorbate 80, HPLC peak areas. The class given is physicochemical. To be noted: water + 5% polysorbate 80, 22° C. The protocol: Saturation studies were performed on Natamycin Composition A and Control Natamycin, both at 25% (w/w %) suspension in water. […] To prepare the samples for solubility analysis, a plastic pipet was used to add 3 drops (0.25 mL) of thoroughly shaken formulation to 10 mL of the dissolution medium. […] Then, 0.05 mL of the mobile phase was added to 0.25 mL of the filtrated natamycin aliquot. The aliquots were then injected individually onto a high performance liquid chromatography (HPLC) column and the resulting peak areas were calculated. […] The column temperature was set to 25° C. and the natamycin was detected at a wavelength of 304 nm.

The nature of series [6]: Liquid phase concentration of natamycin in the suspensions (centrifugation, HPLC). It counts as physicochemical. To be noted: supernatant of suspension in water. The protocol:
The supernatants were then collected and diluted 10-fold with an acetonitrile:water (3:7) solution. The concentration of natamycin in the liquid layer was then determined by injecting the samples individually onto an HPLC and comparing the UV-Vis absorption to that of a standard natamycin stock solution.

In the next series the test system is Fusarium graminearum. The class given is in vivo. To be noted: for Average Vigor: 0-10 scale.

Like-named read-outs stand apart in the source and are kept apart here.

For the compound `C[C@@H]1C/C=C/C=C/C=C/C=C/[C@H](O[C@@H]2O[C@H](C)[C@@H](O)[C@H](N)[C@@H]2O)C[C@@H]2O[C@](O)(C[C@@H](O)C[C@H]3O[C@@H]3/C=C/C(=O)O1)C[C@H](O)[C@H]2C(=O)O` [Natamycin E, natamycin], the Inhibition zone in the series with Saccharomyces cerevisiae [1] (Table 24) is recorded as 242 mm2; with Saccharomyces cerevisiae [1] (Table 26), 188 mm2; in the series with Saccharomyces cerevisiae [1] (Table 27), 179 mm2; in the series on Saccharomyces cerevisiae [1] (Table 28), 110 mm2; in the series with Saccharomyces cerevisiae [2] (24 h), 480 mm^2; in the series with Saccharomyces cerevisiae [2] (48 h (disc replaced on a new plate after 24 h)), 298 mm^2. Further, the Efficacy in the series with Botrytis cinerea (Table 32, 100 ppm natamycin, day 3) is 54%; in the series on Botrytis cinerea (Table 34, day 3) it was 75%; with Botrytis cinerea (Table 34, day 5), 58%; with Botrytis cinerea (Table 34, day 7), 53%; in the series on Botrytis cinerea (Table 34, day 9), 42%; in the series on Botrytis cinerea (Table 35, 100 ppm, day 3) it was 84%. The Efficacy in the series on Botrytis cinerea (Table 35, 100 ppm, day 5) worked out at 41%; in the series with Botrytis cinerea (Table 35, 100 ppm, day 7), 12%; in the series with Botrytis cinerea (Table 35, 2000 ppm, day 3), 100%; in the series on Botrytis cinerea (Table 35, 2000 ppm, day 5), 62%; with Botrytis cinerea (Table 35, 2000 ppm, day 7), 50%. The “D0.5 (average particle size of the particles)” value in series [3] was 14.4 μm.

For `C[C@@H]1C/C=C/C=C/C=C/C=C/[C@H](O[C@@H]2O[C@H](C)[C@@H](O)[C@H](N)[C@@H]2O)C[C@@H]2O[C@](O)(C[C@@H](O)C[C@H]3O[C@@H]3/C=C/C(=O)O1)C[C@H](O)[C@H]2C(=O)O` [Natamycin F, natamycin], the BET in series [4] is 9.36 m^2/g. Further, the Inhibition zone with Saccharomyces cerevisiae [1] (Table 21, 16 h 4° C. then 24 h 30° C.) was found to be 183 mm^2; in the series on Saccharomyces cerevisiae [1] (Table 25), 142 mm2; in the series with Saccharomyces cerevisiae [1] (Table 29), 100 mm2. The compound further registered an Efficacy with Botrytis cinerea (Table 33, 100 ppm natamycin, day 3) of 60.2%. In addition, the “D0.5 (average particle size of the particles)” value in series [3] turned out to be 15.3 μm.

`C[C@@H]1C/C=C/C=C/C=C/C=C/[C@H](O[C@@H]2O[C@H](C)[C@@H](O)[C@H](N)[C@@H]2O)C[C@@H]2O[C@](O)(C[C@@H](O)C[C@H]3O[C@@H]3/C=C/C(=O)O1)C[C@H](O)[C@H]2C(=O)O` [Control Natamycin, comprising natamycin batch # 140206]: the BET analysis in series [4] was 7.7 m^2/g.

Take `C[C@@H]1C/C=C/C=C/C=C/C=C/[C@H](O[C@@H]2O[C@H](C)[C@@H](O)[C@H](N)[C@@H]2O)C[C@@H]2O[C@](O)(C[C@@H](O)C[C@H]3O[C@@H]3/C=C/C(=O)O1)C[C@H](O)[C@H]2C(=O)O` [Control Natamycin, natamycin]: the HPLC peak area in series [5] (20 s) came to 3966 mAUs; in series [5] (60 s) it was 4077 mAUs; in series [5] (300 s) it was 4005 mAUs. Moreover, the “Natamycin in the liquid phase” value in series [6] was 68 µg/mL. Besides, the “average BET surface area” value in series [4] (average of the trials of Table 4) was 8.5 m^2/g. Besides, the “Number of plants at last count” value with Fusarium graminearum (2.5 g AI/100 kg) is on record as 47; in the series on Fusarium graminearum (5 g AI/100 kg), 45; with Fusarium graminearum (10 g AI/100 kg), 36; in the series on Fusarium graminearum (20 g AI/100 kg) it was 45. The Plant loss is recorded as 52% with Fusarium graminearum (2.5 g AI/100 kg), 52% with Fusarium graminearum (5 g AI/100 kg), 62% in the series on Fusarium graminearum (10 g AI/100 kg) and 52% in the series on Fusarium graminearum (20 g AI/100 kg). Moreover, the “Average Vigor” value with Fusarium graminearum (2.5 g AI/100 kg) is 7.9; with Fusarium graminearum (5 g AI/100 kg), 7.8; in the series on Fusarium graminearum (10 g AI/100 kg) it was 7.5; with Fusarium graminearum (20 g AI/100 kg), 7.7.

`C[C@@H]1C/C=C/C=C/C=C/C=C/[C@H](O[C@@H]2O[C@H](C)[C@@H](O)[C@H](N)[C@@H]2O)C[C@@H]2O[C@](O)(C[C@@H](O)C[C@H]3O[C@@H]3/C=C/C(=O)O1)C[C@H](O)[C@H]2C(=O)O` [Control Natamycin, comprising natamycin F]: the BET analysis in series [4] was 9.4 m^2/g.

As to `C[C@@H]1C/C=C/C=C/C=C/C=C/[C@H](O[C@@H]2O[C@H](C)[C@@H](O)[C@H](N)[C@@H]2O)C[C@@H]2O[C@](O)(C[C@@H](O)C[C@H]3O[C@@H]3/C=C/C(=O)O1)C[C@H](O)[C@H]2C(=O)O` [Natamycin 140206, natamycin], the BET in series [4] turned out to be 7.73 m^2/g. The same compound registered an Inhibition zone in the series on Saccharomyces cerevisiae [1] (Table 22) of 167 mm^2.

Source of the values: patent publication US11317631B2, “Natamycin compositions and uses thereof” (Arec Crop Protection B.V., priority 2016, dated 2022).
